The source of these data is US20180000737A1, “INJECTABLE AGGREGATES FOR JOINT AND SOFT TISSUE DISTRESS” (VISGO THERAPEUTICS, INC., priority 2015, published 2018).

For this data set the following is noted: sheep, in vivo, 7 days. An excerpt:
In another embodiment, the present disclosure provides a composition that achieves both immediate and extended release of an active pharmaceutical ingredient (API) upon administration to a subject, the composition comprising chitosan particles and API, the release occurring through at least one of diffusion of API from the particles and breakdown of the particles to release entrapped API. In additional embodiments, the present disclosure provides a composition that achieves both immediate and extended release of an API which is characterized by any one or more of the following exemplary features: the chitosan particles comprise crosslinked chitosan; the API is an NSAID; the API is diclofenac which optionally may be in whole or in part in crystalline form; the immediate release occurs over a period of 12 hours from the administration, and releases from 5 to 70% of API from the particles; the extended release occurs over a period of 0.5 to 7 days from administration, and releases 5 to 70% of the API from the particles; the particles are taken up by the synovium after administration to the subject. […] Accordingly, the incorporation of API into a crosslinked chitosan particle as disclosed herein may provide an extended release of API into the synovial fluid.

Turning to `O=C(O)Cc1ccccc1Nc1c(Cl)cccc1Cl` [diclofenac, 2-(2-(2,6-dichlorophenylamino)phenyl)acetic acid], the “synovial fluid concentration of diclofenac” value is “about 0.05 mg/mL”.
